# From the METLIN SMRT retention time set (Domingo-Almenara et al. 2019)
# Test: gradient 5% acetonitrile 3 min, to 50% in 2 min, to 85% in 15 min, held 3 min, 100 µL/min
# Conditions: column: Zorbax Extend-C18 2.1 x 50 mm; eluents: water / acetonitrile, 0.1% formic acid
# Method in brief: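 Over 3 months, pure standards in mixtures of ~100 molecules were run by HPLC coupled to a quadrupole time-of-flight mass spectrometer in positive and negative ionization mode. The column was a Zorbax Extend-C18 (2.1 × 50 mm, 1.8 μm) at 100 μL/min, eluted with water and acetonitrile each holding 0.1% formic acid, with 40 μL dead and 900 μL dwell volumes. Retention time was determined from adduct peaks chosen by software and checked manually.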
row,RP-LC retention time,SMILES
1,618 s,CC(=O)Nc1ccc(CCc2nc3ccc(C(=O)NCc4ccc5c(c4)OCO5)cc3[nH]2)cc1
2,621 s,CC(=O)Nc1ccc(-n2c(C)nc3ccccc3c2=O)cc1C
3,942 s,N#Cc1cccc(NC(=O)c2cc(C3CC3)n3nccc3n2)c1
4,613 s,O=C(O)c1cnc(NCc2ccccn2)nc1-c1cccc(Cl)c1
5,733 s,CCn1c(-c2cccc(C(=O)NCc3cccs3)c2)nc2cccnc21
6,775 s,O=c1c2scc(-c3ccc(Br)cc3)c2ncn1Cc1cccnc1
7,871 s,CCOc1ccccc1NC(=O)N1CCc2nc(OCCOC)ccc2C1
8,884 s,Cn1cc2c3c(cccc31)CN(C(=O)c1ccc(C#N)cc1)CC2
9,935 s,Cc1ccc(-c2noc(-c3cccc(S(=O)(=O)Nc4ccccn4)c3)n2)cc1
10,939 s,CCOC(=O)c1cccc(N2C=C(C#N)S(=O)(=O)c3ccc(F)cc32)c1
11,845 s,O=C(Cn1c(=O)n(-c2ccccc2)c2ncccc21)NC1CCCCCC1
12,1230 s,CCc1ccc(NC(=O)c2c(O)c3cccnc3n(-c3ccc(F)cc3)c2=O)cc1
13,622 s,COc1cccc2sc(N(CCCN(C)C)C(=O)c3cccc(C(F)(F)F)c3)nc12
14,606 s,Cc1ccc(S(=O)(=O)Cc2ccc(C(=O)N3CCN(c4ccccn4)CC3)o2)cc1
15,967 s,Cc1c(-c2ccc(-c3ccccc3F)cc2)nc2ccc(F)cc2c1C(=O)O
16,1040 s,COc1ccc(-c2nnc(COc3cccc(NC(=O)c4nn(C)c5ccccc45)c3)o2)cc1
17,671 s,Cc1ccc2c(C(=O)NCc3ccccc3C)cc(NC(=O)C(C)C)cc2n1

row,RP-LC retention time,SMILES
1,800 s,Cc1nc(-c2noc(-c3ccccc3)n2)cn1CC(=O)NCc1ccc2c(c1)OCO2
2,820 s,Cc1nc(CC(=O)NC(C)c2ccccc2)sc1C(=O)NCc1ccccc1 (centres undefined)
3,869 s,CCOC(=O)c1nc(NCc2ccc(CC)cc2)c2ccccc2n1
4,668 s,Cc1nc(-c2noc(-c3cccnc3)n2)cn1CC(=O)NC1CCCCC1
5,1030 s,CCOc1ccc(-c2ccc(=O)n(CCc3nc(-c4ccc(SC)cc4)no3)n2)cc1
6,668 s,Cc1nc(-c2ccc(C(=O)N3CC(=O)Nc4ccccc43)cc2)no1
7,898 s,Cn1cc(C2=CCN(S(=O)(=O)Cc3ccccc3)CC2)c2cccnc21
8,822 s,O=C(CN1CCN(Cc2ccccc2)C1=O)NCc1cccc(Cl)c1
9,821 s,Cc1ccc(S(=O)(=O)N2CCCC(Cn3cnc4cccnc43)C2)c(C)c1 (centres undefined)
10,652 s,CCn1nccc1C(=O)Nc1ccc(-n2cnnn2)cc1
11,1270 s,CCn1nccc1-c1cccc(-c2noc(-c3c(F)cccc3F)n2)c1
12,1160 s,O=S(=O)(c1ccc(Br)s1)N1CCc2nc(-c3ccccc3)ncc2C1
13,964 s,Cc1cc(=O)n(CC(=O)Nc2ccccc2)c(-c2ccccc2)n1
14,652 s,O=C(NCCCn1c(-c2ccncc2)nc2cccnc21)Nc1ccc(F)cc1F
15,670 s,COc1ccc(C(=O)N2CCC(n3c(-c4ccoc4)nc4cccnc43)C2)cc1OC (centres undefined)
16,992 s,Cc1cc(-c2nnc(-c3ccc(F)cc3)o2)c(C)n1CC(=O)NCc1cc(F)cc(F)c1

# Further lines, the compound ahead of its results:
row,SMILES,RP-LC retention time
1,O=C(CSc1cc(N2CCCCC2)ncn1)Nc1cccc(C(F)(F)F)c1,1020 s
2,O=C(Nc1ccc(F)cc1F)c1noc2c1CCCC2,883 s
3,CCc1nc2cc(N3CCC(C(=O)NCc4cc(F)ccc4F)CC3)cnc2nc1CC,838 s
4,COc1cc(N2CC(CNS(C)(=O)=O)OC2=O)cc(OC)c1OC (centres undefined),593 s
5,CN1C(=O)c2cc(C(=O)Nc3cccc(F)c3)nn2CC1(C)C(=O)NC1CCCCCC1 (centres undefined),791 s
6,COc1ccc(N2CCN(c3cc(C(=O)O)c4cc(NC(=O)CC(C)C)ccc4n3)CC2)cc1,655 s
7,CC(C)(C)c1nnc(NC(=O)C2CC(=O)N(CCc3c[nH]c4ccc(Cl)cc34)C2)s1 (centres undefined),831 s
8,CN1c2ccccc2C(=O)NC12CCN(C(=O)Nc1ccc(F)cc1)CC2,729 s
9,COc1ccc(OC)c(NC(=O)c2ccc(-n3cnc(NC(=O)C4CC4)c3)cc2)c1,752 s
10,CC(CNC(=O)CC1CCN(S(=O)(=O)c2ccccc2)CC1)c1ccccc1 (centres undefined),866 s
11,O=C(C1CC(=O)N(c2ccc3c(c2)CCN3C(=O)C2CC2)C1)N1CCCC1 (centres undefined),647 s
12,CSc1ccc(CN2CCN(c3cnn4c(C5CC5)nnc4c3)CC2)cc1,603 s
13,COc1ccccc1NC(=O)C1CCN(S(=O)(=O)c2cc(C(=O)N3CCCC3)n(C)c2)CC1,758 s
14,Cc1sc(NC(=O)CCC2CCCCC2)nc1-c1ccc2c(c1)NC(=O)C(C)O2 (centres undefined),679 s
15,Clc1ccc(Cl)c(-c2ccc(CNC3CC3)o2)c1,698 s
16,CCOC(=O)c1cnn(-c2cccc(Cl)c2)c1C1CCNCC1,650 s
17,O=C(CCC[C@@H]1[C@H]2CCCN3CCC[C@@H](CN1C(=O)c1cccs1)[C@@H]23)NCC1CC1,586 s
18,CN(CC#N)C(=O)c1ccc2c(c1)CCN2C(=O)C1CC1,680 s
19,CN1C(=O)c2cc(C(=O)NCc3cccc(Br)c3)nn2CC1(C)C(=O)NC1CCCC1 (centres undefined),807 s

row,SMILES,RP-LC retention time
1,CCCCS(=O)(=O)NC1CCCC(OC(=O)Nc2ccc(F)cc2)C1 (centres undefined),883 s
2,CC(C)NC(=O)c1ccc(OCC2CCCN(C(=O)Cc3ccccc3Cl)C2)cc1 (centres undefined),899 s
3,Cc1cc(NC(=O)C2CCN(C(=O)C3(c4cccs4)CCCC3)CC2)no1,800 s
4,COc1ccc(OC)c(CNC(=O)C2CCN(C(=O)C3Sc4ccccc4NC3=O)CC2)c1 (centres undefined),743 s
5,O=S(=O)(c1ccc(Cl)c(-c2nnc(-c3ccccc3)o2)c1)N1CCOCC1,946 s
6,O=C(CN1CCN(Cc2ccc(F)cc2Cl)C1=O)NCCCc1ccccc1,930 s
7,CC(C)CNC(=O)C1CCN(C(=O)Nc2ccc(NC(=O)Nc3ccccc3)cc2)CC1,812 s
8,O=S(=O)(c1ccccc1Cl)N1CC(F)(F)C[C@H]1COc1cccnc1,731 s
9,CCCCN(C)C(=O)c1ccc2c(c1)N(CCC)C(=O)C1CCC(=O)N21 (centres undefined),759 s
10,COc1cn(CC(=O)NCC2CCCO2)c(CN2CCC(C)CC2)cc1=O (centres undefined),570 s
11,CCC(C)NC(=O)Cn1ncc2c(c1=O)N(C)C(=O)CS2 (centres undefined),606 s
12,Cc1sc2ccn(Cc3ccc(F)cc3)c(=O)c2c1C(=O)NC1CCCCC1,973 s
13,COc1cc(OC)c(NC(=O)Nc2ccc3nc(N4CCN(C)CC4)cc(C)c3c2)cc1Cl,614 s
14,Cc1nn(CC(=O)NCCN2CCCC2)c(=O)c2cc(-c3ccccc3)nn12,631 s
15,COc1ccc(/C=C2/CCOC2=O)cc1,833 s
16,Cc1nn(C)c(C)c1C(C)NC(=O)CCC1CCCN(c2cc(NC3CC3)ncn2)C1 (centres undefined),594 s
17,O=C(COc1ccc(Cl)cc1)NCC1(c2ccc(F)cc2)CC1,988 s
18,O=S(=O)(Cc1ccc(F)cc1)NCC1(c2ccc(F)cc2)CC1,700 s
19,CC(C)NC(=O)CN1C(=O)COc2ccc(C(=O)N3CCCCCC3)cc21,680 s

row,SMILES,RP-LC retention time
1,Cc1ccc(NC(=O)CC2COc3ccccc3NC2=O)cc1F (centres undefined),769 s
2,Cc1ccc(CNC(=O)C2(C)CN(S(C)(=O)=O)CC(=O)N2Cc2ccccc2Cl)cc1 (centres undefined),901 s
3,Cc1ccc(N2C(=O)C3N=NN(Cc4nc(-c5ccc(Br)cc5)no4)C3C2=O)cc1 (centres undefined),1070 s
4,CNC(=O)c1cc(N(C)C)nc2c(Cl)cccc12,666 s
5,N#CCn1nc2n(c1=O)CCN(S(=O)(=O)c1cccc3cccnc13)CC2,702 s
6,Cc1ccc2[nH]cc(CCN3CC(C(=O)NCCc4ccc(F)cc4)CC3=O)c2c1 (centres undefined),821 s
7,CCNC(=O)C1CCCN(c2nc3ncn(CC(=O)Nc4cc(F)cc(F)c4)c(=O)c3s2)C1 (centres undefined),688 s
8,CC1CCN(S(=O)(=O)c2ccc3c(c2)CCCC(=O)N3CC(=O)N2CCc3ccccc32)CC1,1030 s
9,CCN(C(=O)c1cc2c(s1)N(CC1CC1)CCCC2)C(C)C,1260 s
10,COc1ccccc1CNC(=O)CN1CCCC1=O,631 s
11,Cc1ccc(S(=O)(=O)N2CCC(OCc3noc(C4CCCO4)n3)CC2)cc1F (centres undefined),936 s
12,CC(C)C(=O)NCCc1csc(C2CCCN(C(=O)c3cc4ccccc4[nH]3)C2)n1 (centres undefined),803 s
13,CS(=O)(=O)c1ccc(C(=O)Nc2cccc(Cl)c2Cl)cc1,791 s
14,COC(=O)c1c(C)c(C(=O)C(C)N(Cc2ccc(F)cc2)C(=O)C2CCCC2)c(C)n1C (centres undefined),1090 s
15,CC1CCN(S(=O)(=O)N2CCCC(C(=O)NCc3ccc(Cl)cc3)C2)CC1 (centres undefined),1050 s
16,Cc1nnc(N2CCCC(C(=O)N3CCc4ccccc43)C2)c2nn(-c3ccc(Cl)cc3)c(C)c12 (centres undefined),850 s
17,Cc1nn(-c2ccccc2)c(C)c1CCc1nnc2sc(-c3ccc(N(C)C)cc3)nn12,1020 s
18,COCc1noc([C@@H]2CC(F)(F)CN2C(=O)c2coc(C)n2)n1,717 s
